Experimental data taken from PubChem BioAssay AID330 (DTP/NCI, 2004).
Where “and” joins values, the source holds several entries; their conditions need not be identical. Equal values may be shown once. Inconclusive results and toxic doses are left out. How the source made its calls: active means survival T/C of 150% or more; inactive means T/C below 125% in these data.

Test system: P388 leukemia ip, CD2F1 mice, survival T/C
Assay: NCI In Vivo Anticancer Drug Screen. Data for tumor model P388 Leukemia (intraperitoneal) in CD2F1 (CDF1) mice
Conditions: endpoint: median survival time, higher = longer survival
Method in brief: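 Mice carrying the transplanted tumor received test compound or vehicle. Survival was recorded in each group, and the value is the treated-group measurement divided by that of the vehicle-treated control group.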

[1] = dose: 12.5 mg/kg/injection, schedule: Q01DX009 (ip), vehicle: saline with Tween-80
[2] = dose: 25.0 mg/kg/injection, schedule: Q01DX009 (ip), vehicle: saline with Tween-80
[3] = dose: 50.0 mg/kg/injection, schedule: Q01DX009 (ip), vehicle: saline with Tween-80
[4] = dose: 100.0 mg/kg/injection, schedule: Q04DX002 (ip), vehicle: saline with Tween-80
[5] = dose: 200.0 mg/kg/injection, schedule: Q04DX002 (ip), vehicle: saline with Tween-80
[6] = dose: 50.0 mg/kg/injection, schedule: Q01DX005 (ip), vehicle: Klucel (hydroxypropylcellulose) (HPC)
[7] = dose: 100.0 mg/kg/injection, schedule: Q01DX005 (ip), vehicle: Klucel (hydroxypropylcellulose) (HPC)
[8] = dose: 200.0 mg/kg/injection, schedule: Q01DX005 (ip), vehicle: Klucel (hydroxypropylcellulose) (HPC)
[9] = dose: 60.0 mg/kg/injection, schedule: Q01DX005 (ip), vehicle: saline with Tween-80
[10] = dose: 120.0 mg/kg/injection, schedule: Q01DX005 (ip), vehicle: saline with Tween-80
[11] = dose: 240.0 mg/kg/injection, schedule: Q01DX005 (ip), vehicle: saline with Tween-80
[12] = dose: 12.5 mg/kg/injection, schedule: Q01DX005 (ip), vehicle: saline with Tween-80
[13] = dose: 50.0 mg/kg/injection, schedule: Q01DX009 (ip), vehicle: Klucel (hydroxypropylcellulose) (HPC)
[14] = dose: 100.0 mg/kg/injection, schedule: Q01DX009 (ip), vehicle: Klucel (hydroxypropylcellulose) (HPC)
[15] = dose: 200.0 mg/kg/injection, schedule: Q01DX009 (ip), vehicle: Klucel (hydroxypropylcellulose) (HPC)
[16] = dose: 60.0 mg/kg/injection, schedule: Q01DX005 (ip), vehicle: Klucel (hydroxypropylcellulose) (HPC)
[17] = dose: 120.0 mg/kg/injection, schedule: Q01DX005 (ip), vehicle: Klucel (hydroxypropylcellulose) (HPC)

Measured: T/C

CC(C)=CCCC(C)(OC1OC(COC2OC(CO)C(O)C2O)C(O)C(O)C1O)C1CCC2(C)C1C(O)CC1C3(C)CCC(OC4OC(CO)C(O)C(O)C4OC4OC(CO)C(O)C(O)C4O)C(C)(C)C3CCC12C (stereo not given)
inactive: dose: 2.0 mg/kg/injection, schedule: Q01DX009 (ip), vehicle: Klucel (hydroxypropylcellulose) (HPC) 88 % of control | dose: 4.0 mg/kg/injection, schedule: Q01DX009 (ip), vehicle: Klucel (hydroxypropylcellulose) (HPC) 95 % of control | dose: 8.0 mg/kg/injection, schedule: Q01DX009 (ip), vehicle: Klucel (hydroxypropylcellulose) (HPC) 104 % of control | dose: 16.0 mg/kg/injection, schedule: Q01DX009 (ip), vehicle: Klucel (hydroxypropylcellulose) (HPC) 114 % of control | dose: 32.0 mg/kg/injection, schedule: Q01DX009 (ip), vehicle: Klucel (hydroxypropylcellulose) (HPC) 98 % of control

COc1cc(CC2C(=O)OCC2Cc2ccc3c(c2)OCO3)cc(OC)c1OC (stereo not given)
inactive: [1] 98 % of control | [2] 104 % of control | [3] 100 % of control | dose: 50.0 mg/kg/injection, schedule: Q04DX002 (ip), vehicle: acetone 94 % of control | dose: 50.0 mg/kg/injection, schedule: Q04DX002 (ip), vehicle: saline with Tween-80 103 % of control | dose: 100.0 mg/kg/injection, schedule: Q04DX002 (ip), vehicle: acetone 100 % of control | [4] 100 % of control | dose: 200.0 mg/kg/injection, schedule: Q04DX002 (ip), vehicle: acetone 100 % of control | [5] 100 % of control

CC1CCC(C(C)C)C(NC(=O)c2ccncc2)C1 (stereo not given)
inactive: [6] 100 % of control | [7] 101 % of control | [8] 105 % of control

CC(NNC(=S)N1CCN(c2ccccn2)CC1)c1ccccn1 (stereo not given)
inactive: dose: 12.5 mg/kg/injection, schedule: Q01DX005 (ip), vehicle: Klucel (hydroxypropylcellulose) (HPC) 99 % of control | dose: 25.0 mg/kg/injection, schedule: Q01DX005 (ip), vehicle: Klucel (hydroxypropylcellulose) (HPC) 101 % of control | [6] 109 % of control and 95 % of control

COc1cc(Cc2n[nH]c(=S)n2-c2ccccc2)c(S(N)(=O)=O)cc1OC
inactive: [9] 102 % of control | [10] 95 % of control | [11] 94 % of control

O=c1c(Cc2ccc(Cl)cc2)coc2ccccc12
inactive: [9] 94 % of control | [10] 94 % of control | [11] 101 % of control

CCCCCCCC/C=C\CCCCCCCCN1CC(C(=O)[O][Pb]([CH2]C)([CH2]C)[CH2]C)CC1=O (stereo not given)
inactive: dose: 0.75 mg/kg/injection, schedule: Q01DX009 (ip), vehicle: saline with Tween-80 105 % of control | dose: 1.5 mg/kg/injection, schedule: Q01DX009 (ip), vehicle: saline with Tween-80 105 % of control | dose: 6.0 mg/kg/injection, schedule: Q01DX009 (ip), vehicle: saline with Tween-80 115 % of control

Cc1cc2nc(CN)[nH]c2cc1C
inactive: dose: 50.0 mg/kg/injection, schedule: Q04DX003 (ip), vehicle: saline 100 % of control | dose: 100.0 mg/kg/injection, schedule: Q04DX003 (ip), vehicle: saline 100 % of control | dose: 200.0 mg/kg/injection, schedule: Q04DX003 (ip), vehicle: saline 95 % of control

c1ccc2c(c1)oc1cc3c(cc12)ncc1cccn13
inactive: dose: 1.56 mg/kg/injection, schedule: Q01DX005 (ip), vehicle: saline with Tween-80 103 % of control | dose: 3.12 mg/kg/injection, schedule: Q01DX005 (ip), vehicle: saline with Tween-80 100 % of control | dose: 6.25 mg/kg/injection, schedule: Q01DX005 (ip), vehicle: saline with Tween-80 97 % of control | [12] 90 % of control

Cc1cccc(NC(=S)NC2C(=O)Nc3ccccc32)c1 (stereo not given)
inactive: [9] 102 % of control | [10] 100 % of control | [11] 98 % of control

O=[Te]=O
inactive: dose: 3.12 mg/kg/injection, schedule: Q01DX005 (ip), vehicle: saline 103 % of control | dose: 6.25 mg/kg/injection, schedule: Q01DX005 (ip), vehicle: saline 110 % of control | dose: 12.5 mg/kg/injection, schedule: Q01DX005 (ip), vehicle: saline 105 % of control and 116 % of control

CN1CCC/C1=C/C(=O)c1cccc([N+](=O)[O-])c1
inactive: dose: 100.0 mg/kg/injection, schedule: Q04DX003 (ip), vehicle: Klucel (hydroxypropylcellulose) (HPC) 108 % of control | dose: 200.0 mg/kg/injection, schedule: Q04DX003 (ip), vehicle: Klucel (hydroxypropylcellulose) (HPC) 106 % of control

CSc1c(C(C)(C)O)cc(C(C)(C)C)cc1C(C)(C)O
inactive: [13] 93 % of control | [14] 93 % of control | [15] 94 % of control

COc1ccc2[nH]c3c(c2c1)CCNC3CC(C)CCC=C(C)C (stereo not given)
inactive: [1] 99 % of control | [2] 98 % of control

COC(=O)C1=C(N)N2C/C(=C/c3cccs3)SC2=C(C(=O)OC)C1c1cccs1 (stereo not given)
inactive: [12] 96 % of control | dose: 25.0 mg/kg/injection, schedule: Q01DX005 (ip), vehicle: saline with Tween-80 91 % of control | dose: 50.0 mg/kg/injection, schedule: Q01DX005 (ip), vehicle: saline with Tween-80 86 % of control and 91 % of control

CC(=O)CCC(=O)[O][Bi]([c]1ccccc1)[c]1ccccc1
inactive: [6] 110 % of control | [7] 114 % of control | [8] 114 % of control

Nc1ccc(S(=O)(=O)n2c(=O)oc3cc(Br)ccc32)cc1
inactive: dose: 25.0 mg/kg/injection, schedule: Q04DX002 (ip), vehicle: Klucel (hydroxypropylcellulose) (HPC) 99 % of control | dose: 50.0 mg/kg/injection, schedule: Q04DX002 (ip), vehicle: Klucel (hydroxypropylcellulose) (HPC) 99 % of control | dose: 100.0 mg/kg/injection, schedule: Q04DX002 (ip), vehicle: Klucel (hydroxypropylcellulose) (HPC) 100 % of control and 93 % of control

C/C(CCl)=N\NC1=NC2(CCCCC2)P(=O)(NNc2ncccn2)S1 (stereo not given)
inactive: dose: 37.5 mg/kg/injection, schedule: Q01DX005 (ip), vehicle: Klucel (hydroxypropylcellulose) (HPC) 103 % of control | [16] 102 % of control | dose: 75.0 mg/kg/injection, schedule: Q01DX005 (ip), vehicle: Klucel (hydroxypropylcellulose) (HPC) 102 % of control | [17] 100 % of control

O=C1C=C(Br)C(=O)c2c1[nH]c(=O)[nH]c2=O
inactive: dose: 8.0 mg/kg/injection, schedule: Q01DX005 (ip), vehicle: DMSO 117 % of control | dose: 16.0 mg/kg/injection, schedule: Q01DX005 (ip), vehicle: DMSO 107 % of control | dose: 32.0 mg/kg/injection, schedule: Q01DX005 (ip), vehicle: DMSO 95 % of control | dose: 64.0 mg/kg/injection, schedule: Q01DX005 (ip), vehicle: DMSO 107 % of control

Clc1ccc(C(CCc2ccc(Br)cc2)Cn2ccnc2)c(Cl)c1 (stereo not given)
inactive: [2] 88 % of control | [3] 87 % of control

COC(=O)C(CSSCC(C(=O)NC(Cc1ccccc1)C(=O)NCC(=O)OC(C)(C)C)N1C(=O)CCC1=O)NC(=O)OCc1ccccc1 (stereo not given)
inactive: [6] 103 % of control | [7] 93 % of control | [8] 96 % of control

COc1ccc2c(c1)CCC(c1nc3ccc(Cl)cc3[nH]c1=O)=C2O
inactive: [16] 101 % of control | [17] 92 % of control | dose: 240.0 mg/kg/injection, schedule: Q01DX005 (ip), vehicle: Klucel (hydroxypropylcellulose) (HPC) 91 % of control

COc1ccc2c(c1O)C1=CC=CCC13CCN(C)C3C2 (stereo not given)
inactive: [4] 103 % of control | [5] 105 % of control | dose: 400.0 mg/kg/injection, schedule: Q04DX002 (ip), vehicle: saline with Tween-80 108 % of control

COC1=C/C(=C\C=C\c2ccccc2)C(OC)=CC1=O
inactive: dose: 2.5 mg/kg/injection, schedule: Q01DX009 (ip), vehicle: saline with Tween-80 102 % of control | dose: 5.0 mg/kg/injection, schedule: Q01DX009 (ip), vehicle: saline with Tween-80 104 % of control | dose: 10.0 mg/kg/injection, schedule: Q01DX009 (ip), vehicle: saline with Tween-80 108 % of control

COc1ccc2[nH]c3c(c2c1)CNCC3
inactive: dose: 100.0 mg/kg/injection, schedule: Q01DX009 (ip), vehicle: saline 110 % of control | dose: 200.0 mg/kg/injection, schedule: Q01DX009 (ip), vehicle: saline 112 % of control

Cc1cc(-c2ccc(N3C(=O)CC4(CCCC4)C3=O)c(C)c2)ccc1N1C(=O)CC2(CCCC2)C1=O
inactive: [13] 97 % of control | [14] 96 % of control | [15] 96 % of control
